Measured values reported in ChEMBL document CHEMBL4118098, “Discovery of DS28120313 as a potent orally active hepcidin production inhibitor: Design and optimization of novel 4,6-disubstituted indazole derivatives” (Bioorg Med Chem Lett, 2017).
Each block holds one molecule with its values, some of them ahead of it.

What was measured:
[1] = biological target: Cytoplasmic tyrosine-protein kinase BMX (Homo sapiens) (UniProt P51813); assay: Inhibition of BMX (unknown origin) at 0.19 uM relative to control
[2] = biological target: Tyrosine-protein kinase Mer (Homo sapiens) (UniProt Q12866); assay: Inhibition of Mer (unknown origin) at 0.19 uM relative to control
[3] = biological target: Serine/threonine-protein kinase 3 (Homo sapiens) (UniProt Q13188); assay: Inhibition of MST2 (unknown origin) at 0.19 uM relative to control
[4] = biological target: Serine/threonine-protein kinase PAK 2 (Homo sapiens) (UniProt Q13177); assay: Inhibition of PAK2 (unknown origin) at 0.19 uM relative to control
[5] = biological target: Vascular endothelial growth factor receptor 3 (Homo sapiens) (UniProt P35916); assay: Inhibition of FLT4 (unknown origin) at 0.19 uM relative to control
[6] = biological target: Platelet-derived growth factor receptor alpha (Homo sapiens) (UniProt P16234); assay: Inhibition of PDGFR alpha (unknown origin) at 0.19 uM relative to control
[7] = biological target: T1, Serine/threonine-protein kinase DCLK1 (Homo sapiens) (UniProt O15075); assay: Inhibition of DCAMKL1 (unknown origin) at 0.19 uM relative to control
T1 sequence (whole entry): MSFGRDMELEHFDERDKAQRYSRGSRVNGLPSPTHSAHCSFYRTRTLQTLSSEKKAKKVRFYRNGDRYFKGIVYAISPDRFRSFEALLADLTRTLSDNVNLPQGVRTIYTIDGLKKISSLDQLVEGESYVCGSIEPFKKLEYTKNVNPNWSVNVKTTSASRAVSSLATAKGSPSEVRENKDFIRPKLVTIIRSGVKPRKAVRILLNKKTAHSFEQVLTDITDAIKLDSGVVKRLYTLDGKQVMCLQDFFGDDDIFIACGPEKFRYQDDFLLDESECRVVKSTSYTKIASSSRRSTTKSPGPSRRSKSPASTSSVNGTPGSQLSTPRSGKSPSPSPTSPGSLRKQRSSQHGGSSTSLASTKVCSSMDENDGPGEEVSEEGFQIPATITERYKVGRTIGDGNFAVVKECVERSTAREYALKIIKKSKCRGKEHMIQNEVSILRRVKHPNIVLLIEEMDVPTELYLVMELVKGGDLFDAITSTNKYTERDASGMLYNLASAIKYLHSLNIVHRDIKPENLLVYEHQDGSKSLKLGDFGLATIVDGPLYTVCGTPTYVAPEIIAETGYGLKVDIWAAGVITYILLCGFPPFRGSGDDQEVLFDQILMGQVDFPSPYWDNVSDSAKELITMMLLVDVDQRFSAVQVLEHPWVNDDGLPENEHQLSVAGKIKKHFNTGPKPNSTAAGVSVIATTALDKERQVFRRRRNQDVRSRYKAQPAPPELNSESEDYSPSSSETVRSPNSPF

[8] = biological target: Tyrosine-protein kinase FRK (Homo sapiens) (UniProt P42685); assay: Inhibition of FRK (unknown origin) at 0.19 uM relative to control
[9] = biological target: Protein kinase C zeta type (Homo sapiens) (UniProt Q05513); assay: Inhibition of PKC-zeta (unknown origin) at 0.164 uM relative to control
[10] = biological target: Serine/threonine-protein kinase Chk1 (Homo sapiens) (UniProt O14757); assay: Inhibition of CHK1 (unknown origin) at 0.164 uM relative to control
[11] = biological target: Protein kinase C gamma type (Homo sapiens) (UniProt P05129); assay: Inhibition of PKC-gamma (unknown origin) at 0.164 uM relative to control
[12] = biological target: Mast/stem cell growth factor receptor Kit (Homo sapiens) (UniProt P10721); assay: Inhibition of KIT (unknown origin) at 0.164 uM relative to control
[13] = test system: Proto-oncogene tyrosine-protein kinase receptor Ret (Homo sapiens), P07949 [V804L]; assay: Inhibition of Ret V804L mutant (unknown origin) at 0.164 uM relative to control
[14] = biological target: Tyrosine-protein kinase Srms (Homo sapiens) (UniProt Q9H3Y6); assay: Inhibition of SRM (SRMS) (unknown origin) at 0.164 uM relative to control
[15] = biological target: Ephrin type-A receptor 3 (Homo sapiens) (UniProt P29320); assay: Inhibition of EPHA3 (unknown origin) at 0.164 uM relative to control
[16] = biological target: Ephrin type-B receptor 2 (Homo sapiens) (UniProt P29323); assay: Inhibition of EPHB2 (unknown origin) at 0.164 uM relative to control
[17] = biological target: Tyrosine-protein kinase Yes (Homo sapiens) (UniProt P07947); assay: Inhibition of Yes (unknown origin) at 0.164 uM relative to control
[18] = biological target: Serine/threonine-protein kinase pim-3 (Homo sapiens) (UniProt Q86V86); assay: Inhibition of PIM3 (unknown origin) at 0.164 uM relative to control
[19] = biological target: Dual specificity tyrosine-phosphorylation-regulated kinase 3 (Homo sapiens) (UniProt O43781); assay: Inhibition of DYRK3 (unknown origin) at 0.164 uM relative to control
[20] = biological target: Macrophage-stimulating protein receptor (Homo sapiens) (UniProt Q04912); assay: Inhibition of MST1R (unknown origin) at 0.164 uM relative to control
[21] = biological target: CDK6/cyclin D3 (Homo sapiens) (UniProt P30281+Q00534); assay: Inhibition of CDK6/CyclinD3 (unknown origin) at 0.164 uM relative to control; assay type: protein-complex assay
[22] = biological target: T2, MAP kinase-activated protein kinase 5 (Homo sapiens) (UniProt Q8IW41); assay: Inhibition of PRAK (unknown origin) at 0.45 uM relative to control
T2 sequence (whole entry): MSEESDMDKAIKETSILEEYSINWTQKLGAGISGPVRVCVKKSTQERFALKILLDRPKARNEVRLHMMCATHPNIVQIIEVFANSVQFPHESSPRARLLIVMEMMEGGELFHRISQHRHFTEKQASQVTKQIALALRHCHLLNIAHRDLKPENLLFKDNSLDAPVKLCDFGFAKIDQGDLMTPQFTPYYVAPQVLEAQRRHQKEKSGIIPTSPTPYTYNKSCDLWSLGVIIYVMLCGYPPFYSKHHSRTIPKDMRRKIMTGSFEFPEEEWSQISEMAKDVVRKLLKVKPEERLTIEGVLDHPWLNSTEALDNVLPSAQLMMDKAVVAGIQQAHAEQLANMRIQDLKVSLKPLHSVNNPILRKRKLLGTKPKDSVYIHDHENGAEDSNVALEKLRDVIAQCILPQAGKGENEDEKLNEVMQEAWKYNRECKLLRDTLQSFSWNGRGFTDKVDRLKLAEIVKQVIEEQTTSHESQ

[23] = organism: Homo sapiens; assay: Inhibition of PKA (unknown origin) at 0.45 uM relative to control
[24] = biological target: RAC-alpha serine/threonine-protein kinase (Homo sapiens) (UniProt P31749); assay: Inhibition of AKT1 (unknown origin) at 0.45 uM relative to control
[25] = biological target: Leukocyte tyrosine kinase receptor (Homo sapiens) (UniProt P29376); assay: Inhibition of LTK (unknown origin) at 0.45 uM relative to control
Sequence of Leukocyte tyrosine kinase receptor (Homo sapiens) (P29376 whole entry): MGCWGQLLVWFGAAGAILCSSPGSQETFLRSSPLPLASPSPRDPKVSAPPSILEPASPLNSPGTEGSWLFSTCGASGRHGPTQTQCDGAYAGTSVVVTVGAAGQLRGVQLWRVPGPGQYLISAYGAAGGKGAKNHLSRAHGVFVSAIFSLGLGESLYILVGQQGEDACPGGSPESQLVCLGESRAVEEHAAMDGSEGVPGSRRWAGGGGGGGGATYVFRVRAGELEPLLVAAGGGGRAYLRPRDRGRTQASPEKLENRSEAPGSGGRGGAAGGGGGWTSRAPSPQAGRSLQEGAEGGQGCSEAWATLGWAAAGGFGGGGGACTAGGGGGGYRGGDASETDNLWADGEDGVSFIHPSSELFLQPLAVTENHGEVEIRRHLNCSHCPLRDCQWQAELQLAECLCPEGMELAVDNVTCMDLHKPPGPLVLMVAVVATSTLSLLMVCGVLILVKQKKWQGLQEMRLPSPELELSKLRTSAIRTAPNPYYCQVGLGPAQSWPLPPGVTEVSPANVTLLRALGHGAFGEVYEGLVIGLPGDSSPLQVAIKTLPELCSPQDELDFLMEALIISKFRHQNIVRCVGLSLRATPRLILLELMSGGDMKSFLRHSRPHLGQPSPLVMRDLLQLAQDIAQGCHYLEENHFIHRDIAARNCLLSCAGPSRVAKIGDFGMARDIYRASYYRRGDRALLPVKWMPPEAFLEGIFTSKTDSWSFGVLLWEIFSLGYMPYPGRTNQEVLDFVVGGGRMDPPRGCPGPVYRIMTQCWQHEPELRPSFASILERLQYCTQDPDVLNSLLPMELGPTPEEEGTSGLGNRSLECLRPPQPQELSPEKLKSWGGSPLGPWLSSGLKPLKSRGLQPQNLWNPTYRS

Sequence of Tyrosine-protein kinase Mer (Homo sapiens) (Q12866 whole entry): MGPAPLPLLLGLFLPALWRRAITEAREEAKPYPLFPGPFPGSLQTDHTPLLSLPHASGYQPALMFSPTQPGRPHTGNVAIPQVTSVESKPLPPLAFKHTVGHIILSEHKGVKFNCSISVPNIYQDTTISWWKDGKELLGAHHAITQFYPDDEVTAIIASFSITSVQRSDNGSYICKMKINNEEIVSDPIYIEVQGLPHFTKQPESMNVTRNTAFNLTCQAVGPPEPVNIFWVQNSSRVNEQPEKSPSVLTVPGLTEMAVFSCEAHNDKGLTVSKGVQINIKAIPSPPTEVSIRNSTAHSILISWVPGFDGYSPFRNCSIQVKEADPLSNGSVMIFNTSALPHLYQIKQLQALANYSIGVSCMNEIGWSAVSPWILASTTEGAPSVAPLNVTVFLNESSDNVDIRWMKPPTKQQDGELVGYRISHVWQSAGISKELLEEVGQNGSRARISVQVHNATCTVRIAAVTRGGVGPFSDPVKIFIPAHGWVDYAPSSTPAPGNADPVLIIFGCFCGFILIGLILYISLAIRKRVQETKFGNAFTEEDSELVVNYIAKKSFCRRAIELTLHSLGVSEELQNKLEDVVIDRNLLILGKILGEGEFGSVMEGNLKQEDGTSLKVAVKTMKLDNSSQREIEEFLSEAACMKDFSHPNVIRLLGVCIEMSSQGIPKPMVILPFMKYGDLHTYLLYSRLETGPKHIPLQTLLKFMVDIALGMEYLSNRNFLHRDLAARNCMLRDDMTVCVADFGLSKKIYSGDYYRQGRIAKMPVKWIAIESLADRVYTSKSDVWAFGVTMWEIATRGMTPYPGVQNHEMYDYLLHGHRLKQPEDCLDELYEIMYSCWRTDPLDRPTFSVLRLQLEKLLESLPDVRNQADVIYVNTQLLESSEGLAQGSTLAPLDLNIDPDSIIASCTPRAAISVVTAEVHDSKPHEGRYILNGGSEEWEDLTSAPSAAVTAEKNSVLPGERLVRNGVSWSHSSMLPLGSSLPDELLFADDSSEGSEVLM
Sequence of Dual specificity tyrosine-phosphorylation-regulated kinase 3 (Homo sapiens) (O43781 whole entry): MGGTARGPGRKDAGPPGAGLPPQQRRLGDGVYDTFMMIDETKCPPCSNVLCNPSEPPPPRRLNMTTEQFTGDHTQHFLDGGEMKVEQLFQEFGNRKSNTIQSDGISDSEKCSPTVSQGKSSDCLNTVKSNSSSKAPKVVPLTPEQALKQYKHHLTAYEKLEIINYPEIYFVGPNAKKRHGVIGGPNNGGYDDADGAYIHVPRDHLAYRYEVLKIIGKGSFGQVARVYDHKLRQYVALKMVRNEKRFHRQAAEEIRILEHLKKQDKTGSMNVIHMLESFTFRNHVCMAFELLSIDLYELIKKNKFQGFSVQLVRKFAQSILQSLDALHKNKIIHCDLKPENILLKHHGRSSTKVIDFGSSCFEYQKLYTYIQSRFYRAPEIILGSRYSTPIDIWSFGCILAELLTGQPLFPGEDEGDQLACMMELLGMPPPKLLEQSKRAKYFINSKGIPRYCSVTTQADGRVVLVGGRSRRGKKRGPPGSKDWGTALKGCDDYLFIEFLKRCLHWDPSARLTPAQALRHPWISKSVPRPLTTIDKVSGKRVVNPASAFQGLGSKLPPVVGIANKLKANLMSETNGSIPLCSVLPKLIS
Sequence of Tyrosine-protein kinase FRK (Homo sapiens) (P42685 whole entry): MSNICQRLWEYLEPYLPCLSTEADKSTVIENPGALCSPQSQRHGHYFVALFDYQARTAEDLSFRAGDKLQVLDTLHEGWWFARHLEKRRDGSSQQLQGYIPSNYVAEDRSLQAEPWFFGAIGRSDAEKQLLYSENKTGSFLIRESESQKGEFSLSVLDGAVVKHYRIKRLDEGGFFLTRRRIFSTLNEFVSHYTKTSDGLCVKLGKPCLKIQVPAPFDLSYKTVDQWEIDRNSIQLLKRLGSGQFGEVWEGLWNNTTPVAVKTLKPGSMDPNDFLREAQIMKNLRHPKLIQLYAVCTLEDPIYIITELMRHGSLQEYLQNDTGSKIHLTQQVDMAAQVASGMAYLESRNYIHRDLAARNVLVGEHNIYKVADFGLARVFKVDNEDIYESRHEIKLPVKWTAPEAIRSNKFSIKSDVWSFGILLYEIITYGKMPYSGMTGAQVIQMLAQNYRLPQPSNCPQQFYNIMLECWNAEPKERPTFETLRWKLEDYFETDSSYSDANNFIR
Sequence of Macrophage-stimulating protein receptor (Homo sapiens) (Q04912 25-304 limits assumed): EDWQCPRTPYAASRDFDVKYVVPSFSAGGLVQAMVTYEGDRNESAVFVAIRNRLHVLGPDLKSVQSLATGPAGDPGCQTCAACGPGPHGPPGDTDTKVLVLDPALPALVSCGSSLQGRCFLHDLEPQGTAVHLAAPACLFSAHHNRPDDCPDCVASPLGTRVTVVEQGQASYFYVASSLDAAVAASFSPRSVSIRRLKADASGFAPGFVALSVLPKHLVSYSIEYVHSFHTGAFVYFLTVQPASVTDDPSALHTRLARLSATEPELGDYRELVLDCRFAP
Sequence of Macrophage-stimulating protein receptor (Homo sapiens) (Q04912 310-1400 limits assumed): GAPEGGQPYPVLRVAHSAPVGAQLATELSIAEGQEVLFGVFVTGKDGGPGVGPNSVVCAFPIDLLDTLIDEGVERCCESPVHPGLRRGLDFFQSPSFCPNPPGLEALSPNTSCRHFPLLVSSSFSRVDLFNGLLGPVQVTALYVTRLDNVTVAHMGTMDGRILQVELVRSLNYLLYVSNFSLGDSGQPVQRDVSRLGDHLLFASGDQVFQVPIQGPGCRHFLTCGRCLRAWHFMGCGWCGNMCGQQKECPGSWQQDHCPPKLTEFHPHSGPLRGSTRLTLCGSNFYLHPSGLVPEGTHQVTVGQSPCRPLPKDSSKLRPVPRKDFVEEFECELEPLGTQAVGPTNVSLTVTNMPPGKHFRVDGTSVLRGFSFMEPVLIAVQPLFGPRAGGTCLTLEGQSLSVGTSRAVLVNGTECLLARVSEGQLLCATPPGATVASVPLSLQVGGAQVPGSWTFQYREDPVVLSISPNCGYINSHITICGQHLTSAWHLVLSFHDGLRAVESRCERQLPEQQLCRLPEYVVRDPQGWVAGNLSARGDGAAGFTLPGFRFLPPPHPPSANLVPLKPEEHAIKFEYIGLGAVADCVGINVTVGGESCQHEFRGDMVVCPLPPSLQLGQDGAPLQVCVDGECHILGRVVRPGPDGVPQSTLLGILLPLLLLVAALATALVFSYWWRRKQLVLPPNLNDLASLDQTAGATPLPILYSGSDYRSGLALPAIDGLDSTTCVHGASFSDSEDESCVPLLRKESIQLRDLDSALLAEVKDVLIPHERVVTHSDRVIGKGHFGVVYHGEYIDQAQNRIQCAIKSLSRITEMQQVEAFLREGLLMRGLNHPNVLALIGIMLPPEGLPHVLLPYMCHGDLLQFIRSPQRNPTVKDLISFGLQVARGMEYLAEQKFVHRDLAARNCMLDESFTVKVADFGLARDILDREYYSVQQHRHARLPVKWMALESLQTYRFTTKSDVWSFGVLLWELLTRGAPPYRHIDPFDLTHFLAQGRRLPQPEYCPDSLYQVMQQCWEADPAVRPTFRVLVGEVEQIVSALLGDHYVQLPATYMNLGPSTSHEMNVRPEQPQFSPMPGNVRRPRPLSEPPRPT
Sequence of Protein kinase C zeta type (Homo sapiens) (Q05513 whole entry): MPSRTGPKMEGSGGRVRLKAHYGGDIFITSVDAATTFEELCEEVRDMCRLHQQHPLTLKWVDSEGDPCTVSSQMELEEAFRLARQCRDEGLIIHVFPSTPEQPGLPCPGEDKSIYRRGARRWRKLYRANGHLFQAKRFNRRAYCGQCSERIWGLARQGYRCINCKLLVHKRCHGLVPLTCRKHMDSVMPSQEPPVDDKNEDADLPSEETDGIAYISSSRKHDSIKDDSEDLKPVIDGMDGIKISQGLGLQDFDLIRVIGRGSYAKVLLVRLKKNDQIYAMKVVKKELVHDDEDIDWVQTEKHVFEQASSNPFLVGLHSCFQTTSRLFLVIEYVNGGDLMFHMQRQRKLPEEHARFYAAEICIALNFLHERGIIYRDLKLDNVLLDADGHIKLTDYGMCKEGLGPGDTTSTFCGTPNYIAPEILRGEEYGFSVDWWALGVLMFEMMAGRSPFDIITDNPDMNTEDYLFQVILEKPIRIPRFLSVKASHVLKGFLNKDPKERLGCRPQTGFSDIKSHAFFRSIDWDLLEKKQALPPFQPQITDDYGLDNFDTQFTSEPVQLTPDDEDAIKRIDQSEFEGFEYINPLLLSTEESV

- inhibition [1]: -3.7%
- inhibition [2]: -4%
- inhibition [3]: 4.7%
- inhibition [4]: -3%
- inhibition [5]: 28.3%
- inhibition [6]: 36%
- inhibition [7]: -1.3%
- inhibition [8]: 3.3%
Compound: Cc1[nH]nc(C2CC2)c1-c1ccc2c(-c3ccc(N4CCN(C)CC4)nc3)n[nH]c2c1

- inhibition [9]: 11.7%
- inhibition [10]: 5.3%
- inhibition [11]: -2.7%
- inhibition [12]: 4%
- inhibition [13]: 0.7%
- inhibition [14]: 3.3%
- inhibition [15]: -6.7%
- inhibition [16]: -1%
- inhibition [17]: 3%
- inhibition [18]: -2.3%
- inhibition [19]: 5.3%
- inhibition [20]: -5%
- inhibition [21]: 2.7%
Compound: COC(=O)Nc1cc(-c2c(C3CC3)n[nH]c2C)cc2[nH]ncc12

- inhibition [22]: -1.7%
- inhibition [23]: 3%
- inhibition [24]: -1.7%
- inhibition [25]: 0%
Compound: Cc1n[nH]c(C)c1-c1ccc2c(NC(=O)c3ccc(N4CCN(C)CC4)cc3)n[nH]c2c1
